US7582725B2, “Agents, which inhibit apoptosis in cells that are involved in wound healing” (Dermatools Biotech GmbH, priority 2001, dated 2009)

What was measured:
Assay type in all cases: cell-based
MRC-5 fibroblasts [1] = experiment: Tension-dependent apoptosis of MRC-5 fibroblasts in collagen matrices (relaxed), DAPI staining; conditions: relaxed collagen matrix
Procedure: 2×10^5 cells are seeded in each collagen matrix. For this purpose, 100 μl of the cell suspension (the appropriate cell titer is adjusted after the trypsinization in serum-free DMEM) are introduced into 1.5 ml reaction vessels pre-equilibrated at 37° C., 100 μl of the neutralized collagen solution are added, and the resulting solution is incubated at 37° C. for 4 min. The collagen concentration is 1.5 mg/ml. The cell/collagen suspension is seeded in 24-well cell culture plates or in 3.5 cm culture dishes. The matrix is polymerized at 37° C. for 60 min.
The matrices are covered with a layer of culture medium (DMEM+10% FCS+50 μg/ml ascorbic acid) and cultivated in an incubator at 37° C. and 8.5% by volume CO2 in a water vapor-saturated air atmosphere for 24 h.
The adherent matrix is cautiously detached with a spatula from the substrate and “floats” in the culture medium without contact with the substrate. The tension is abolished. The cultivation takes place for the period stated in each case.
The cells are cultivated as stated in example 11. Day “0” corresponds to the time after 24 h cultivation with ascorbic acid-containing medium before further cultivation under tensioned or relaxed conditions. After the stated times, the cell/collagen matrix is fixed in 4% (w/v) paraformaldehyde in PBS, followed by DAPI staining. […]

MRC-5 fibroblasts [2] = experiment: Incubation of fibroblasts with anti-apoptotic peptides: TSP-1 induced apoptosis, DAPI staining; conditions: 24 h; for Inhibition index [%]: 100−(measured apoptosis index*100/control apoptosis index), 1 μg/ml TSP-1 + peptide 1 mM; for Apoptosis index [%]: static, fresh medium with 1 μg/ml TSP-1 + peptide 1 mM, 3 independent experiments, average ± SD
Procedure: The cells are cultivated under static culture conditions as in example 1/variant 1B1. The cells are seeded in the appropriate culture vessels (e.g. 24-well plate/0.5 ml per well) and employed for the test 3 days after complete confluence is reached. The cells are provided with new medium: • (a) fresh culture medium [basic rate of apoptosis] • (b) fresh culture medium with 1 μg/ml TSP-1 [apoptosis-inducing substance; control] • (c) culture medium (b)+peptide of SEQ ID NO 1; 1 mM • (d) culture medium (b)+peptide of SEQ ID NO 2; 1 mM • (e) culture medium (b)+peptide of SEQ ID NO 3; 1 mM • (f) culture medium (b)+peptide of SEQ ID NO 4; 1 mM • (g) culture medium (b)+peptide of SEQ ID NO 7; 1 mM • (h) culture medium (b)+peptide of SEQ ID NO 8; 1 mM • (i) culture medium (b)+peptide of SEQ ID NO 9; 1 mM • (j) culture medium (b)+peptide of SEQ ID NO 10; 1 mM • (k) culture medium (b)+peptide of SEQ ID NO 11; 1 mM • (l) culture medium (b)+peptide of SEQ ID NO 5; 1 mM • (m) culture medium (b)+peptide of SEQ ID NO 6; 1 mM
After incubation under culture conditions (example 1) for 24 h, the cells are fixed, stained with DAPI and examined morphologically under the fluorescence microscope. The apoptotic cells and the total number of cells are determined, and the apoptosis index is calculated (percent of apoptotic cells). The data from 3 independent experiments are indicated in the following table, indicating the averages and the standard deviation.
The inhibition index of the peptides employed is calculated as follows:
Inhibition index [%]=100−(measured apoptosis index* 100/control apoptosis index)

MRC-5 fibroblasts [3] = experiment: Rate of apoptosis of statically cultivated MRC-5 fibroblasts, DAPI staining; conditions: for Apoptosis [%]: static, 24 h, substance in fresh medium, or conditioned medium alone
Procedure: The MRC-5 cell line used is seeded in ungelatinized cell culture vessels. The subsequent cultivation takes place in an incubator at 37° C. and 5% by vol. CO2 in a water vapor-saturated atmosphere. The culture medium is changed every second to third day and, after confluence is reached, the cells are passaged with a division rate from 1:5 to 1:10.
(§1) The culture supernatant from a Petri dish is aspirated off, and the cell lawn is fixed with 1 ml of formaldehyde solution on ice for 15 minutes, washed twice with 2 ml of PBS, treated with 0.5 ml of DAPI solution for 15 minutes, washed with PBS and evaluated under the fluorescence microscope. The UV filter set and a 20× or 40× objective are used. 500-1 000 cells are selected at random, and the cells with apoptotic nuclei are counted.
The apoptosis index is calculated by the following formula: […]
The used culture medium from a confluent MRC-5 fibroblast culture is removed, and the cell lawn is washed once with culture medium and cultivated under the stated conditions for 24 h.
The used culture medium from a confluent culture is removed, and the cell lawn is washed once with culture medium and cultivated under the stated conditions for 24 h.

MRC-5 fibroblasts [4] = experiment: Rate of apoptosis of dynamically cultivated MRC-5 fibroblasts (cone and plate shear apparatus), DAPI staining
Procedure: The fibroblasts are initially cultivated under static conditions until confluence is reached. This is followed by cultivation under dynamic conditions in the cone and plate shear apparatus (after Bussolori et al. (1982) Rev. Sci. Instrum. 53, 1851-1854) for 24 h.
This is done by precultivation of the cells initially in gelatinized culture dishes (◯=35 mm) with 0.15 ml/cm^2 culture medium and then further cultivation under turbulent or laminar flow conditions in the cone and plate shear apparatus for a maximum of 24 h. The flow conditions result from the angle of the cone. The flow over the cells is turbulent at a cone angle of 5° and is laminar at a cone angle of 0.5°.
Before use, the cone and plate shear apparatus is cleaned with a soft cloth and 70% (v/v) ethanol, the cone is sterilized and the apparatus is equilibrated at 37° C. in a heating cabinet. […]
as §1, with “The UV filter set and a 20× or 40× objective are used.” left out, “counted. […]” for “counted.”

## CO[C@@H]1C(=O)O[C@H](C)[C@H](C)/C=C(\C)C[C@H](C)C(=O)N[C@@H](C)C(=O)N(C)[C@H](Cc2c[nH]c3ccccc23)C(=O)N[C@H]1c1ccc(O)cc1 [chondramide A, reference compound]
MRC-5 fibroblasts [1]; Example 14, 1 μM for 1 h before detachment, 8 h further cultivation
  Apoptosis [%]: 1.0 ± 0.2%

## K-R-A-Y-V-V-M-W-K-K (KRAYVVMWKK) [SEQ ID NO 5]
MRC-5 fibroblasts [2]
  Inhibition index [%]: 90.1 ± 4.9%
  Apoptosis index [%]: 0.42 ± 0.21%

## K-R-E-Y-V-V-M-W-K-K (KREYVVMWKK) [SEQ ID NO 6]
MRC-5 fibroblasts [2]
  Inhibition index [%]: 94.4 ± 4.2%
  Apoptosis index [%]: 0.24 ± 0.18%

## R-A-Y-V-V-M (RAYVVM) [SEQ ID NO 1]
MRC-5 fibroblasts [2]
  Inhibition index [%]: 71.4 ± 6.8%
  Apoptosis index [%]: 1.21 ± 0.29%

## R-D-Y-V-V-M (RDYVVM) [SEQ ID NO 11]
MRC-5 fibroblasts [2]
  Inhibition index [%]: 38.9 ± 16.7%
  Apoptosis index [%]: 2.66 ± 0.71%

## R-E-Y-V-V-M (REYVVM) [SEQ ID NO 4]
MRC-5 fibroblasts [2]
  Inhibition index [%]: 80.4 ± 7.0%
  Apoptosis index [%]: 0.87 ± 0.32%

## R-G-Y-V-V-M (RGYVVM) [SEQ ID NO 7]
MRC-5 fibroblasts [2]
  Inhibition index [%]: 53.7 ± 13.9%
  Apoptosis index [%]: 2.00 ± 0.59%

## R-M-Y-V-V-M (RMYVVM) [SEQ ID NO 8]
MRC-5 fibroblasts [2]
  Inhibition index [%]: 42.8 ± 6.9%
  Apoptosis index [%]: 2.46 ± 0.29%

## R-N-Y-V-V-M (RNYVVM) [SEQ ID NO 10]
MRC-5 fibroblasts [2]
  Inhibition index [%]: 13.5 ± 16.2%
  Apoptosis index [%]: 3.70 ± 1.11%

## R-T-Y-V-V-M (RTYVVM) [SEQ ID NO 9]
MRC-5 fibroblasts [2]
  Inhibition index [%]: 25.4 ± 11.8%
  Apoptosis index [%]: 3.19 ± 0.50%

## R-W-Y-V-V-M (RWYVVM) [SEQ ID NO 2]
MRC-5 fibroblasts [2]
  Inhibition index [%]: 53.7 ± 6.8%
  Apoptosis index [%]: 2.00 ± 0.29%

## R-Y-Y-V-V-M (RYYVVM) [SEQ ID NO 3]
MRC-5 fibroblasts [2]
  Inhibition index [%]: 65.3 ± 0.9%
  Apoptosis index [%]: 1.45 ± 0.04%

## thrombospondin 1 [TSP-1]
MRC-5 fibroblasts [3]; Example 6
  Apoptosis [%]: 5.6 ± 0.2%
MRC-5 fibroblasts [3]; Example 7
  Apoptosis [%]: 5.6 ± 0.2%
MRC-5 fibroblasts [3]; static culture
  Effect on apoptosis of statically cultivated fibroblasts (in words): increase in spontaneous apoptosis
MRC-5 fibroblasts [4]; dynamic cultivation, 24 h, conditioned medium alone or fresh medium + TSP-1
  Apoptosis [%]: 0.4 ± 0.1%
MRC-5 fibroblasts [4]; dynamic culture
  Effect on apoptosis of dynamic fibroblast cell culture (in words): no effect on apoptosis
MRC-5 fibroblasts [1]; Example 13, DMEM/FCS + substance, 24 h, antibodies 50 μg/ml, Tsp1 20 μg/ml
  Apoptosis [%]: 10.5 ± 0.5%
